Source: patent US9862708B2, “Pyrazolone compounds and uses thereof” (Tempest Therapeutics, Inc., priority 2014, dated 2018)

Target: T1, human PPARα (Homo sapiens, UniProt Q07869)
T1 construct: host or cells: proprietary non-human mammalian cells
T1 sequence (Q07869 1-468): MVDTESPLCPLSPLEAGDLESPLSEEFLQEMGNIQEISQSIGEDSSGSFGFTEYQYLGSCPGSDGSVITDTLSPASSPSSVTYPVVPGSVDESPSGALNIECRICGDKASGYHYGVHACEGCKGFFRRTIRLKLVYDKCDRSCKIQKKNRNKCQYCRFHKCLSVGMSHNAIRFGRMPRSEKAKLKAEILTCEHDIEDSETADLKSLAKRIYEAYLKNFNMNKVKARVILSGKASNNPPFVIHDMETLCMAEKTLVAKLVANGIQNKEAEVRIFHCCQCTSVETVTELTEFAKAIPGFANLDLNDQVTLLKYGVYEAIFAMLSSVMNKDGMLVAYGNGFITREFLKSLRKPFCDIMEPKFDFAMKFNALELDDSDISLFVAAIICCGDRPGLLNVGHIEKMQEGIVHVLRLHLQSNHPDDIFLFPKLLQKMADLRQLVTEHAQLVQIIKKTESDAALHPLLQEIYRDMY
Assay: Human PPARα Reporter Assay (luciferase, Indigo Biosciences)
Format: cell-based
Conditions: antagonism; luciferase reporter cells, overnight incubation; read-out: PPARα IC50
Method: Human PPARα Reporter Assay
The screening of test compounds for agonist or antagonist activities against human PPARα receptors was performed using a commercial kit, Human PPARα Reporter Assay System (Indigo Biosciences, Cat. #IB00111).
This nuclear receptor assay system utilizes proprietary non-human mammalian cells engineered to provide constitutive, high-level expression of Human PPARα. Because these cells incorporate a PPARα-responsive luciferase reporter gene, quantifying expressed luciferase activity provides a sensitive surrogate measure of PPARα activity in the treated cells. The primary application of this reporter assay system is in the screening of test samples to quantify any functional activity, either agonist or antagonist, that they may exert against human PPARα.
Briefly, reporter cells are dispensed into wells of the assay plate and then immediately dosed with test compounds. Following an overnight incubation, the treatment media is discarded and Luciferase Detection Reagent (LDR) is added. The intensity of light emission from the ensuing luciferase reaction provides a sensitive measure that is directly proportional to the relative level of PPARα activation in the reporter cells.

SMILES | IC50
CC(C)(Oc1ccc(CCCC2=NN(Cc3ccc(C4CC4)cc3)C(=O)C2(C)C)cc1)C(=O)O [Example 16, 2-(4-(3-(1-(4-cyclopropylbenzyl)-4,4-dimethyl-5-oxo-4,5-dihydro-1H-pyrazol-3-yl)propyl)phenoxy)-2-methylpropanoic acid] | 140 nM
CC(C)(Oc1ccc(CCCC2=NN(c3ccc(OC(F)(F)F)cc3)C(=O)C23CCCC3)cc1)C(=O)O [Example 28, 2-methyl-2-(4-(3-(4-oxo-3-(4-(trifluoromethoxy)phenyl)-2,3-diazaspiro[4,4]non-1-en-1-yl)propyl)phenoxy)propanoic acid] | 0.97 nM
CC(C)(Oc1ccc(CCCC2=NN(Cc3ccc(C(C)(C)C)cc3)C(=O)C2(C)C)cc1)C(=O)NCc1ccccn1 [Example 4, 2-(4-(3-(1-(4-(tert-butyl)benzyl)-4,4-dimethyl-5-oxo-4,5-dihydro-1H-pyrazol-3-yl)propyl)phenoxy)-2-methyl-N-(pyridin-2-ylmethyl)propanamide] | 240 nM
CC(C)(Oc1ccc(CCCC2=NN(c3ccccc3)C(=O)C2(C)C)cc1)C(=O)O [Example 10, 2-(4-(3-(4,4-dimethyl-5-oxo-1-phenyl-4,5-dihydro-1H-pyrazol-3-yl)propyl)phenoxy)-2-methylpropanoic acid] | 410 nM
CC1(C)C(=O)N(c2cccc(C(F)(F)F)c2)N=C1CCCc1ccc(OC2(C(=O)O)CCC2)cc1 [Example 51, 1-(4-(3-(4,4-dimethyl-5-oxo-1-(3-(trifluoromethyl)phenyl)-4,5-dihydro-1H-pyrazol-3-yl)propyl)phenoxy)cyclobutanecarboxylic acid] | 58 nM
Cc1ccc(N2N=C(CCCc3ccc(OC(C)(C)C(=O)NC4CC4)cc3)C3(CCCC3)C2=O)cc1C [Example 32, N-cyclopropyl-2-(4-(3-(3-(3,4-dimethylphenyl)-4-oxo-2,3-diazaspiro[4,4]non-1-en-1-yl)propyl)phenoxy)-2-methylpropanamide] | 250 nM
CC(C)(Oc1ccc(CCCC2=NN(c3ccc(OC(F)(F)F)cc3)C(=O)C23CCCC3)cc1)C(=O)NCC(F)(F)F [Example 30, 2-methyl-2-(4-(3-(4-oxo-3-(4-(trifluoromethoxy)phenyl)-2,3-diazaspiro[4,4]non-1-en-1-yl)propyl)phenoxy)-N-(2,2,2-trifluoroethyl)propanamide] | 710 nM
CC(C)(Oc1ccc(CCCC2=NN(c3ccc(C(F)(F)F)cc3)C(=O)C2(C)C)cc1)C(=O)O [Example 19, 2-(4-(3-(4,4-dimethyl-5-oxo-1-(4-(trifluoromethyl)phenyl)-4,5-dihydro-1H-pyrazol-3-yl)propyl)phenoxy)-2-methylpropanoic acid] | 3.8 nM
CC(C)(Oc1ccc(CCCC2=NN(Cc3ccc(C(F)(F)F)cc3)C(=O)C2(C)C)cc1)C(=O)O [Example 8, 2-(4-(3-(4,4-dimethyl-5-oxo-1-(4-(trifluoromethyl)benzyl)-4,5-dihydro-1H-pyrazol-3-yl)propyl)phenoxy)-2-methylpropanoic acid] | 62 nM
CC(C)(Oc1ccc(CCCC2=NN(Cc3ccc(C(C)(C)C)cc3)C(=O)C2(C)C)cc1)C(=O)NS(=O)(=O)c1ccccc1 [Example 2, 2-(4-(3-(1-(4-(tert-butyl)benzyl)-4,4-dimethyl-5-oxo-4,5-dihydro-1H-pyrazol-3-yl)propyl)phenoxy)-2-methyl-N-(phenylsulfonyl)propanamide] | 2.1 nM
CC(C)(Oc1ccc(CCCC2=NN(c3ccc(C(F)(F)F)cc3)C(=O)C2(C)C)cc1)C(=O)C(F)(F)F [Example 44, 4,4-dimethyl-3-(3-(4-((4,4,4-trifluoro-2-methyl-3-oxobutan-2-yl)oxy)phenyl)propyl)-1-(4-(trifluoromethyl)phenyl)-1H-pyrazol-5(4H)-one] | 610 nM
CC(C)(Oc1ccc(CCCC2=NN(Cc3ccc(C(C)(C)C)cc3)C(=O)C2(C)C)cc1)C(=O)O [Example 1, 2-(4-(3-(1-(4-(tert-butyl)benzyl)-4,4-dimethyl-5-oxo-4,5-dihydro-1H-pyrazol-3-yl)propyl)phenoxy)-2-methylpropanoic acid] | 15 nM
CC1(C)C(=O)N(c2ccc(C(F)(F)F)cc2)N=C1CCCc1ccc(OC(C)(C(=O)O)c2ccccc2)cc1 (single isomer, unassigned) [53-enantiomer#1, 2-(4-(3-(4,4-dimethyl-5-oxo-1-(4-(trifluoromethyl)phenyl)-4,5-dihydro-1H-pyrazol-3-yl)propyl)phenoxy)-2-phenylpropanoic acid] | 820 nM
CC1(C)C(=O)N(c2ccc(C(F)(F)F)cc2)N=C1CCCc1ccc(OC2(C(=O)O)CCCC2)cc1 [Example 52, 1-(4-(3-(4,4-dimethyl-5-oxo-1-(4-(trifluoromethyl)phenyl)-4,5-dihydro-1H-pyrazol-3-yl)propyl)phenoxy)cyclopentanecarboxylic acid] | 4.1 nM
CC(C)(Oc1ccc(CCCC2=NN(Cc3ccc(C(F)(F)F)c(F)c3)C(=O)C2(C)C)cc1)C(=O)O [Example 18, 2-(4-(3-(1-(3-fluoro-4-(trifluoromethyl)benzyl)-4,4-dimethyl-5-oxo-4,5-dihydro-1H-pyrazol-3-yl)propyl)phenoxy)-2-methylpropanoic acid] | 120 nM
CC1(C)C(=O)N(c2cccc(C(F)(F)F)c2)N=C1CCCc1ccc(OC(C)(C(=O)O)c2ccccc2)cc1 (single isomer, unassigned) [54-enantiomer#2, 2-(4-(3-(4,4-dimethyl-5-oxo-1-(3-(trifluoromethyl)phenyl)-4,5-dihydro-1H-pyrazol-3-yl)propyl)phenoxy)-2-phenylpropanoic acid] | 8.9 nM
CC(C)(CN)Oc1ccc(CCCC2=NN(c3ccc(C(F)(F)F)cc3)C(=O)C23CCCC3)cc1 [Example 45, 4-(3-(4-((1-amino-2-methylpropan-2-yl)oxy)phenyl)propyl)-2-(4-(trifluoromethyl)phenyl)-2,3-diazaspiro[4,4]non-3-en-1-one] | 840 nM
CC(C)(Oc1ccc(CCCC2=NN(c3cccc(C(F)(F)F)c3)C(=O)C23CCCC3)cc1)C(=O)O [Example 35, 2-methyl-2-(4-(3-(4-oxo-3-(3-(trifluoromethyl)phenyl)-2,3-diazaspiro[4,4]non-1-en-1-yl)propyl)phenoxy)propanoic acid] | 32 nM
CC(C)(Oc1ccc(CCCC2=NN(c3cccc(C(C)(C)C)c3)C(=O)C23CCCC3)cc1)C(=O)O [Example 40, 2-(4-(3-(3-(3-(tert-butyl)phenyl)-4-oxo-2,3-diazaspiro[4,4]non-1-en-1-yl)propyl)phenoxy)-2-methylpropanoic acid] | 20 nM
CC1(C)C(=O)N(c2ccc(C(F)(F)F)cc2)N=C1CCCc1ccc(OC(C(=O)O)c2ccccc2)cc1 (stereo not shown) [Example 48, 2-(4-(3-(4,4-dimethyl-5-oxo-1-(4-(trifluoromethyl)phenyl)-4,5-dihydro-1H-pyrazol-3-yl)propyl)phenoxy)-2-phenylacetic acid] | 4.7 nM
CC(C)(Oc1ccc(CCCC2=NN(Cc3ccc(C(C)(C)C)cc3)C(=O)C23CCCC3)cc1)C(=O)O [Example 23, 2-(4-(3-(3-(4-(tert-butyl)benzyl)-4-oxo-2,3-diazaspiro[4,4]non-1-en-1-yl)propyl)phenoxy)-2-methylpropanoic acid] | 13 nM
CC(C)(Oc1ccc(CCCC2=NN(c3ccc(C(C)(C)C)cc3)C(=O)C2(C)C)cc1)C(=O)O [Example 11, 2-(4-(3-(1-(4-(tert-butyl)phenyl)-4,4-dimethyl-5-oxo-4,5-dihydro-1H-pyrazol-3-yl)propyl)phenoxy)-2-methylpropanoic acid] | 8.1 nM
